Measured values published in US7605156B2, “Methods for the use of inhibitors of cytosolic phospholipase A2” (Wyeth, priority 2001, dated 2009).

What was measured:
[1] = system: B6 mice; assay: Experimental autoimmune encephalomyelitis (EAE), animal model of multiple sclerosis; type: in vivo; details: orally, 100 mg/kg, twice/day; for EAE clinical score: prevention of EAE: from the day of immunization; for EAE clinical score: clinical severity of EAE: starting on the day of EAE onset (day 15)
Method: Six groups of B6 mice were immunized with MOG/CFA and injected with pertussis toxin to induce experimental autoimmune encephalomyelitis (EAE), an animal model of Multiple sclerosis. […] Another three groups of mice were treated with vehicle, Compound A or Compound B starting on the day of EAE onset (day 15) (orally, 100 mg/kg, twice/day). […] The results are shown in FIG. 1, wherein mean clinical score is a mean of clinical evaluation of each animal for that particular day. Animals are scored as follows: • 0 no clinical signs of EAE (no paralysis) • 1—paralysis of tail • 2—paralysis of tail and partial hind leg paralysis • 3—paralysis of tail And complete hind leg paralysis • 4—paralysis of tail, complete hind leg paralysis and a partial front leg paralysis • 5—moribund animal (all four limbs paralyzed, lack of responsiveness, these mice were immediately euthanized).

[2] = system: ApoE KO mice; assay: ApoE knockout mouse model of atherosclerosis; type: in vivo; details: 3.3 mg/g in chow, 20 weeks
[3] = biological target: T1, cPLA2 (Homo sapiens, UniProt P47712); assay: Coumarine assay (hydrolysis of 7-hydroxycoumarinyl 6-heptenoate); type: biochemical; details: 60 μM 7-hydroxycoumarinyl 6-heptenoate, pH 7.5; read-out: Coumarin IC50
T1 sequence (P47712 1-749): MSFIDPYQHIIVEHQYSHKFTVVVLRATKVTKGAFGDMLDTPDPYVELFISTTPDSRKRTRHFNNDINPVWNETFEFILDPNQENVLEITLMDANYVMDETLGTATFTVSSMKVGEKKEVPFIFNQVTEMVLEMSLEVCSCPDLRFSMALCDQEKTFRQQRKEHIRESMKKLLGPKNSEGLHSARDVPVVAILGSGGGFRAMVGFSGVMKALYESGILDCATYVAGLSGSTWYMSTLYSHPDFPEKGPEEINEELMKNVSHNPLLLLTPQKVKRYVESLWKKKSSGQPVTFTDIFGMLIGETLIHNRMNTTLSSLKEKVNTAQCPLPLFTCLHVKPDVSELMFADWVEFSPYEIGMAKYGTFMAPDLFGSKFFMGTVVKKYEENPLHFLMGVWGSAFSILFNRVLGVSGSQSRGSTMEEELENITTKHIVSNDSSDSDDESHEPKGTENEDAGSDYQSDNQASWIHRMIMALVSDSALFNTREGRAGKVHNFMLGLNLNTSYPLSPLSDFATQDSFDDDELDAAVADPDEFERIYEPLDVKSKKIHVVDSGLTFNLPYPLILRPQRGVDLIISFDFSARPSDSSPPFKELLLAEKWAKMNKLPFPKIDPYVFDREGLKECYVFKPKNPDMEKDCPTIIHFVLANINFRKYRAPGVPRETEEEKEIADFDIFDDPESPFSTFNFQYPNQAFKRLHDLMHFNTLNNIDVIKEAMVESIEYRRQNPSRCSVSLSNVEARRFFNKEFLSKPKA
Method: Inhibitors were mixed with 200 μL assay buffer (80 mM Heped, pH 7.5, 1 mM EDTA) containing 60 μM 7-hydroxycoumarinyl 6-heptenoate. The reaction was initiated by adding 4 μg cPLA2 in 50 μL assay buffer. Hydrolysis of the 7-hydroxycounarimyl 6-heptenoate ester was monitored in a fluorometer by exciting at 360 nm and monitoring emission at 460 nm. Enzyme activity is proportional to the increase in emission at 460 nm per minute. In the presence of a cPLA2 inhibitor, the rate of increase is less.

[4] = system: Adult male Wistar rats; assay: Transient middle cerebral artery occlusion (tMCAO); type: in vivo
Method: Adult male Wistar rats (Charles River, Wilmington, Mass.) 290-310 g were anesthetized with 3% isoflurane in 70% nitrous oxide and 30% oxygen through a nose cone. Temperature was maintained at 37° C. throughout the surgery using a heating lamp. Transient MCAO was induced for 90 min using the intraluminal suture method (see Longa, E. L. et al., 1989 Stroke 20:294-297). Briefly, an 18 mm length of 4-0 monofilament nylon suture coated with 0.1% poly-L-lysine (Belayev, L. et al, 1996 Stroke 27:1616-1623) and a flame-rounded tip was inserted into the external carotid artery and advanced through the internal carotid to occlude the origin of the middle cerebral artery (MCAO). Ninety minutes later the rats were re-anesthetized and the suture was withdrawn. Rats were sacrificed at 72 hrs post-MCAO.
Behavioral score: Animals are tested for motor deficits using a modified Bederson score. Briefly, animals are tested for flexion of the contralateral forelimb, twisting of the torso, decreased resistance to lateral push, circling to the contralateral side when holding the tail, and spontaneous circling. Each animal is scored 1 point for each behavior detected for a total of 5 points. Each animal is score at 90 min, just prior to reperfusion, at 24 hrs, 48 hrs and 72 hrs following MCAO.
Body weight is taken prior to MCAO surgery for baseline and 24 hrs, 48 hrs and 72 hrs after MCAO.
(§1) After sacrifice, the brains are extracted and placed in a rat brain matrix and 2 mm coronal slabs are taken from 4 mm caudal to the frontal pole and extending to the hindbrain. Sections are immersed in the active mitochondrial stain TTC at 37° C. for 10 min to delineate the lesion. Digitized sections are collected on the MCID image analysis system (Imaging Research, Inc. Ontario, Canada), area measurements are determined and a total lesion volume is calculated (area×distance in mm).

[5] = system: Primary cerebellar granule neurons; assay: Oxygen-glucose deprivation (OGD) in cultured neurons; type: cell-based, rat; details: various concentrations, added 60 minutes before OGD; 2 hours OGD, read 24 hours later
Method: Primary cerebellar granule neurons were isolated from P5-8 rat pups. Briefly, cerebelli were collected and pooled in ice-cold phosphate buffer saline (PBS) without Ca^2+ and Mg^2+. The tissue was finely chopped and transferred to an enzymatic dissociation media containing 20 IU/ml papain in Earle's balanced salt solution (Worthington Biochemical, Freehold, N.J.) and incubated for 30 minutes at 37° C. After enzymatic dissociation, the papain solution was aspirated and the tissue mechanically triturated with a fire-polished Pasteur pipette in complete media [Neurobasal Medium with B-27 supplement (Gibco, Grand Island, N.Y.), penicillin/streptomycin, aphidicolin, glutamate, potassium chloride] containing 2,000 IU/ml DNase and 10 mg/ml ovomucoid protease inhibitor. Single-cell suspensions in complete media were plated on pre-coated poly-L-ornithine/laminin 24-well plates (Becton-Dickinson, Bedford, Mass.) at a density of 5.0×10^5 cells/well. Cells were maintained for two weeks prior to experimentation.
Cultures were treated with Compound A at various concentrations, 60 minutes before OGD. Media was removed and replaced with deoxygenated buffer in an anaerobic chamber (80% nitrogen, 10% hydrogen, 10% carbon dioxide gas mixture). […] Cell death was determined by measuring lactate dehydrogenase release into the media 24 hours later (Roche Biochemicals). […]

[6] = system: Adult male Wistar rats; assay: Permanent middle cerebral artery occlusion (pMCAO); type: in vivo; details: dosed four times; 72 hours post ischemia
Method: Adult male Wistar rats (Charles River, Wilmington, Mass.) 270-300 g were anesthetized with 3% isoflurane in 70% nitrous oxide and 30% oxygen through a nose cone. Temperature was maintained at 37° C. throughout the surgery using a heating lamp. Permanent occlusion of MCAO was induced by electrocauterization of the distal portion of the MCA (via a craniotomy) with a 120 min ligation of both carotid arteries to interrupt collateral circulation (see Chen, S. T., et al, 1986 Stroke 17:738-743). Rats were sacrificed 72 hours post ischemia for measurement of infarct volume.
as §1

[7] = system: Primary dopaminergic neurons; assay: MPP+ exposure in dopaminergic neurons (3H-dopamine uptake); type: cell-based, rat; details: 10 μM MPP+ for 60 minutes, read 24 hours later
Method: Primary dopaminergic neurons were isolated from E15 rat embryos as described in Pong K., et al., (1997) J. Neurochem. 69 986-994. Briefly, the ventral mesencephalon was isolated and tissue was pooled in ice-cold phosphate buffer saline (PBS) without Ca^2+ and Mg^2+. The tissue was transferred to an enzymatic dissociation media containing 20 IU/ml papain in Earle's balanced salt solution (Worthington Biochemical, Freehold, N.J.) and incubated for 30 minutes at 37° C. After enzymatic dissociation, the papain solution was aspirated and the tissue mechanically triturated with a fire-polished Pasteur pipette in complete media [Neurobasal Medium with B-27 supplement (Gibco, Grand Island, N.Y.), penicillin/streptomycin, aphidicolin, glutamate] containing 2,000 IU/ml DNase and 10 mg/ml ovomucoid protease inhibitor. Single-cell suspensions in complete media were plated on pre-coated poly-L-ornithine/laminin 24-well plates (Becton-Dickinson, Bedford, Mass.) at a density of 5.0×10^5 cells/well. […]
Cultures were treated with various concentrations of Compound A and GDNF (glial-cell line derived neurotrophic factor, a positive control) hours before exposure to the neurotoxin MPP^+, the toxic metabolite of MPTP. […] Dopaminergic neuron viability was determined 24 hours later by measuring ^3H-dopamine uptake as described in Pong et al., 1997, supra.

[8] = 10 mg/kg and 30 mg/kg four times

Structure (SMILES)	EAE clinical score: prevention of EAE [1]	EAE clinical score: clinical severity of EAE [1]	melting point	IC50 [3]	further results
O=C(O)c1ccc(OCCc2c(CCNS(=O)(=O)Cc3ccc(Cl)c(Cl)c3)n(C(c3ccccc3)c3ccccc3)c3ccc(Cl)cc23)cc1 [Example 10, 4-{2-[1-Benzhydryl-5-chloro-2-(2-{[(3,4-dichlorobenzyl)sulfonyl]amino}-ethyl)-1H-indol-3-yl]ethoxy}benzoic acid]	prevent EAE	reduce clinical severity of EAE	–	–	–
O=C(O)c1ccc(CCCc2c(CCNS(=O)(=O)Cc3ccc(Cl)c(Cl)c3)n(C(c3ccccc3)c3ccccc3)c3ccc(Cl)cc23)cc1 [Example 44]	–	–	–	–	atherosclerotic plaque burden at the aortic sinus [2]: 282697±146462 μm^2; decrease of atherosclerotic plaque burden at the aortic sinus ([2]; vs control animals, p<0.001): 45.6%
O=C(O)c1ccc(OCCc2c(CCNS(=O)(=O)Cc3ccccc3Cl)n(C(c3ccccc3)c3ccccc3)c3ccc(Cl)cc23)cc1F [Example 297, 4-{2-[1-benzhydryl-5-chloro-2-(2-{[(2-chlorobenzyl)sulfonyl]amino}ethyl)-1H-indol-3-yl]ethoxy}-2-fluorobenzoic acid]	–	–	132 to 135 °C	0.3 µM	–
CC(C)(Cc1ccc(S(=O)(=O)CCc2c(CCNS(=O)(=O)Cc3ccc(Cl)c(Cl)c3)n(C(c3ccccc3)c3ccccc3)c3ccc(Cl)cc23)cc1)C(=O)O [Example 298, 3-[4-({2-[1-benzhydryl-5-chloro-2-(2{[(3,4-dichlorobenzyl)sulfonyl]amino}ethyl)-1H-indol-3-yl]ethyl}sulfonyl)phenyl]-2,2-dimethylpropanoic acid]	–	–	207 to 208 °C	0.19 µM	–
O=C(O)c1ccc(OCCc2c(CCNS(=O)(=O)Cc3ccc(Cl)c(Cl)c3)n(C(c3ccccc3)c3ccccc3)c3ccc(Cl)cc23)cc1F [Example 296, 4-{2-[1-benzhydryl-5-chloro-2-(2-{[(3,4-dichlorobenzyl)sulfonyl]amino}ethyl)-1H-indol-3-yl]ethoxy}-2-fluorobenzoic acid]	–	–	117 to 119 °C	0.32 µM	–
Cc1cccc(C)c1CS(=O)(=O)NCCc1c(CCCc2ccc(C(=O)O)cc2)c2cc(Cl)ccc2n1C(c1ccccc1)c1ccccc1 [Example 52, 4-{3-[1-benzhydryl-5-chloro-2-(2-{[(2,6-dimethylbenzyl)-sulfonyl]amino}ethyl)-1H-indol-3-yl]propyl}benzoic acid]	prevent EAE	reduce clinical severity of EAE	–	–	behavioral deficits (modified Bederson score) [4, 8]: effectively reduced behavioral deficits; weight loss following MCAO [4, 8]: reduced weight loss; infarct volume ([4]; 10 mg/kg or 30 mg/kg four times (90 min, […], 24 hr, 48 hr post occlusion)): significant level of neuroprotection; therapeutically relevant window of opportunity ([4]; 30 mg/kg 3 times, first dose 4 or 6 hrs post occlusion, measuring infarct volume and neurological deficits): at least 6 hrs; significant treatment window ([4]; 30 mg/kg 3 times, first dose 4 or 6 hrs post occlusion, measuring weight loss): 4 h; OGD-induced cell death (lactate dehydrogenase release) [5]: effective in protecting cultured neurons from OGD-induced cell death; infarct volume [6]: significantly reduces infarct volume; dopaminergic neuron viability (3H-dopamine uptake) [7]: effective to protect dopaminergic neuron viability against MPP^+
